From patent US20240245711A1, “A 19-NOR C3,3-DISUBSTITUTED C21-N-PYRAZOLYL STEROID FOR THE TREATMENT OF MAJOR DEPRESSIVE DISORDER” (Sage Therapeutics, Inc., priority 2021, published 2024)
Values joined by “and” are separate entries in the source; they are usually repeats but may differ in a detail not shown here. Equal values may be shown once.

System: adult subjects with Major Depressive Disorder
Assay: Phase 3 open-label 1-year study: need for re-treatment (number of and time to re-treatments)
Format: in vivo, human
Description: Secondary Objective: To assess the need for re-treatment with Compound (1) following initial treatment in adults with MDD currently experiencing an MDE over a 1-year period, and to assess the response of initial treatment and re-treatment(s) with Compound (1) following an initial 2-week treatment period in adults with MDD currently experiencing an MDE over a 1-year period.
Secondary Endpoints: The need for re-treatment with Compound (1) as assessed by: time to first re-treatment (Kaplan-Meier curves), number of subjects achieving the requirements for re-treatment, number of re-treatment cycles for each subject, the response of initial treatment and/or re-treatment as assessed by: change from baseline in the 17-item Hamilton Rating Scale for Depression (HAM-D) total score at the end of each 14-day treatment (initial and/or re-treatment) period, HAM-D response at the end of each 14-day treatment (initial and/or re-treatment) period, defined as a ≥50% reduction in HAM-D score from baseline, HAM-D remission at the end of each 14-day treatment (initial and/or re-treatment) period, defined as HAM-D total score≤7, Clinical Global Impression-Improvement (CGI-I) response, defined as “much improved” or “very much improved”, at the end of each 14-day treatment (initial and/or re-treatment) period, change from baseline in Clinical Global Impression-Severity (CGI-S) score at the end of each 14-day treatment (initial and/or re-treatment) period.
Subjects who continued in the Observation Period were monitored remotely via PHQ-9 assessment every two weeks. If PHQ-9 score was >=10 at any assessment, PHQ-9 assessment was switch to every week until the score came down below 10 or the subject was dosed with Compound (1) in a subsequent cycle, whichever was earlier. A subject was to come back to the site for HAM-D assessment within a week of PHQ-9 score >=10; if the HAM-D total score >=20 and at least 56 days had elapsed since the last dose of Compound (1), another dosing cycle of Compound (1) were to start. If any of these criteria were not met, the subject couldn't be treated with Compound (1) at that time. Without the trigger of PHQ-9>=10 the subject was to have a clinic visit every 8 weeks. A subject could have at most 5 cycles of treatment within a year. FIG. 2 is a depiction of the eligibility criteria of the study.
The cohorts pertaining to the different doses that the subjects received were defined as following: • 50 mg cohort: This cohort includes subjects who have initiated treatment with 50 mg and received re-treatment with 50 mg only. • 30 mg cohort: This cohort includes subjects who have initiated treatment with 30 mg regardless of the dose they have received in re-treatments. • Low dose cohort: This cohort includes subjects who have initiated treatment with 30 mg and received re-treatment with 30 mg only. • Dose switch cohort: This cohort includes subjects who have received initial treatment with 30 mg and at least one subsequent re-treatment with 50 mg. • Study Period X: starts on the date of the first dose of Compound (1) in cycle X and goes up to one day prior to the first dose of the next cycle. In some embodiments, X is any number from 1 to 5. • Treatment Period X: starts on the date of the first dose of Compound (1) in cycle X and goes up to one day after the last dose in cycle X. In some embodiments, X is any number from 1 to 5. • Treatment Cycle X: starts on the date of the first dose of Compound (1) in cycle X and goes up to 14 days after the last dose in cycle X. The treatment cycles may be denoted as C1-C5. • Observation period X: starts the day after Treatment Cycle X ends and goes up to one day prior to the start of next treatment cycle. In some embodiments, X is any number from 1 to 5.
Analysis Sets: The safety set was defined as all subjects who were administered study drug. The period-specific safety set includes subjects in the safety set who were administered study drug in the corresponding treatment cycle. […]

[1] = 50 mg Cohort (N = 146), Examples 2-3 cut-off
[2] = 50 mg Cohort FAS (146), one-year follow-up (Example 4)
[3] = 50 mg Cohort, Examples 2-3 cut-off
[4] = Cycle 3, 50 mg Cohort (FAS), 1 subject

## C[C@@]1(O)CC[C@H]2[C@H](CC[C@@H]3[C@@H]2CC[C@]2(C)[C@@H](C(=O)Cn4cc(C#N)cn4)CC[C@@H]32)C1 [Compound (1), 1-(2-((3R,5R,8R,9R,10S,13S,14S,17S)-3-hydroxy-3,13-dimethylhexadecahydro-1H-cyclopenta[a]phenanthren-17-yl)-2-oxoethyl)-1H-pyrazole-4-carbonitrile]
30 mg Cohort
  Average (range) number of re-treatments per subject over 1-year follow-up: 1.2 (0-4) and 1.2
  Average total number of treatments per subject: 2.2
30 mg Cohort (472 eligible)
  Dosed in at least 1 re-treatment cycle, % of eligible: 279 (59.1%)
  Qualified to be retreated in at least 1 more cycle (HAM-D total score >= 20), % of eligible: 305 (64.6%)
30 mg Cohort Overall
  FAS Subjects Dosed in C2, n (%) of FAS: 279 (57.1%)
  FAS Subjects dosed in C3, n (%) of FAS: 154 (31.5%)
  FAS Subjects dosed in C4, n (%) of FAS: 96 (19.6%)
  FAS Subjects dosed in C5, n (%) of FAS: 43 (8.8%)
30 mg cohort (N = 489)
  Subjects with No re-treatment (Cycle 1), n (%) of FAS: 210 (42.9%)
  Subjects with Only 1 re-treatment (Cycle 2), n (%) of FAS: 125 (25.6%)
  Subjects with Only 2 re-treatment (Cycle 3), n (%) of FAS: 58 (11.9%)
  Subjects with Only 3 re-treatment (Cycle 4), n (%) of FAS: 53 (10.8%)
  Subjects with Only 4 re-treatment (Cycle 5), n (%) of FAS: 43 (8.8%) and 43 8.8%)
50 mg Cohort (122 eligible)
  Dosed in at least 1 re-treatment cycle, % of eligible: 26 (21.3%)
  Qualified to be retreated in at least 1 more cycle (HAM-D total score >= 20), % of eligible: 36 (29.5%)
[1]
  Subjects with No re-treatment (Cycle 1), n (%) of FAS: 120 (82.2%)
  Subjects with Only 1 re-treatment (Cycle 2), n (%) of FAS: 25 (17.1%)
  Subjects with Only 2 re-treatment (Cycle 3), n (%) of FAS: 1 (0.7%)
[2]
  Subjects who received 1 treatment course in total: 54.8%
  Subjects who received 2 treatment courses in total: 24.7%
  Subjects who received 3 treatment courses in total: 10.3%
  Subjects who received 4 treatment courses in total: 6.8%
  Subjects who received 5 treatment courses in total: 3.4%
  Subjects who received at most one additional treatment cycle: 79.5%
[3]
  FAS Subjects Dosed in C2, n (%) of FAS: 26 (17.8%)
  FAS Subjects dosed in C3, n (%) of FAS: 1 (0.7%)
50 mg Cohort, one-year follow-up (Example 4)
  Proportion with zero or at most 1 additional treatment cycle, by use of antidepressant therapy at baseline: similar
Cycle 2, 50 mg Cohort
  n/N: FAS subjects eligible and dosed in Cycle X / eligible for dosing in Cycle X: 26/122
Cycle 2, 50 mg Cohort (FAS)
  Time to re-treatment since last dose in previous cycle, Mean (SD): 70.5 (18.52) Days
  Time to re-treatment since last dose in previous cycle, Median: 62.5 days
  Time to re-treatment since last dose in previous cycle, Min - Max: 58 to 122 days
Cycle 2, Dose Switch
  n/N: FAS subjects eligible and dosed in Cycle X / eligible for dosing in Cycle X: 80/80
Cycle 2, Dose Switch (FAS)
  Time to re-treatment since last dose in previous cycle, Mean (SD): 116.5 (70.26) Days
  Time to re-treatment since last dose in previous cycle, Median: 91 days
  Time to re-treatment since last dose in previous cycle, Min - Max: 58 to 318 days
Cycle 2, Low Dose
  n/N: FAS subjects eligible and dosed in Cycle X / eligible for dosing in Cycle X: 199/392
Cycle 2, Low Dose (FAS)
  Time to re-treatment since last dose in previous cycle, Mean (SD): 99.5 (52.15) Days
  Time to re-treatment since last dose in previous cycle, Median: 78 days
  Time to re-treatment since last dose in previous cycle, Min - Max: 58 to 297 days
Cycle 3, 50 mg Cohort
  n/N: FAS subjects eligible and dosed in Cycle X / eligible for dosing in Cycle X: 1/4
[4]
  Time to re-treatment since last dose in previous cycle, Mean (SD): 58 (NA) Days and 58.0 (NA), 58.0, Days
  Time to re-treatment since last dose in previous cycle, Median: 58 Days and 58.0 (NA), 58.0, Days
  Time to re-treatment since last dose in previous cycle, Min - Max: 58-58 Days
Cycle 3, Dose Switch
  n/N: FAS subjects eligible and dosed in Cycle X / eligible for dosing in Cycle X: 71/76
Cycle 3, Dose Switch (FAS)
  Time to re-treatment since last dose in previous cycle, Mean (SD): 92.5 (34.44) Days
  Time to re-treatment since last dose in previous cycle, Median: 79 days
  Time to re-treatment since last dose in previous cycle, Min - Max: 58 to 214 days
Cycle 3, Low Dose
  n/N: FAS subjects eligible and dosed in Cycle X / eligible for dosing in Cycle X: 83/166
Cycle 3, Low Dose (FAS)
  Time to re-treatment since last dose in previous cycle, Mean (SD): 87.2 (34.97) Days
  Time to re-treatment since last dose in previous cycle, Median: 72 days
  Time to re-treatment since last dose in previous cycle, Min - Max: 52 to 217 days
Cycle 4, Dose Switch
  n/N: FAS subjects eligible and dosed in Cycle X / eligible for dosing in Cycle X: 53/63
Cycle 4, Dose Switch (FAS)
  Time to re-treatment since last dose in previous cycle, Mean (SD): 69.9 (13.40) Days
  Time to re-treatment since last dose in previous cycle, Median: 66 days
  Time to re-treatment since last dose in previous cycle, Min - Max: 57 to 120 days
Cycle 4, Low Dose
  n/N: FAS subjects eligible and dosed in Cycle X / eligible for dosing in Cycle X: 43/74
Cycle 4, Low Dose (FAS)
  Time to re-treatment since last dose in previous cycle, Mean (SD): 72.1 (17.67) Days
  Time to re-treatment since last dose in previous cycle, Median: 65 days
  Time to re-treatment since last dose in previous cycle, Min - Max: 57 to 113 days
Cycle 5, Dose Switch
  n/N: FAS subjects eligible and dosed in Cycle X / eligible for dosing in Cycle X: 23/45
Cycle 5, Dose Switch (FAS)
  Time to re-treatment since last dose in previous cycle, Mean (SD): 61.4 (6.24) Days
